Experimental data from patent US6949566B2, “Thiazole and oxazole derivatives” (Shionogi & Co. Ltd., priority 2000, dated 2005).

target: T1, MMP-9 (Homo sapiens, UniProt P14780); assay: Assay for inhibitory activities on MMPs (fluorogenic peptide substrate), MMP-9; format: biochemical; details: MMP-9 from HT1080 cells, activated by TPCK-Trypsin; substrate MOCAc-Pro-Leu-Gly-Leu-A2Pr(DNP)-Ala-Arg-NH2
T1 construct: endogenous in cells; host or cells: HT1080 human fibrosarcoma cells, TPA-stimulated; enzyme purified from conditioned medium
T1 sequence (P14780 107-707 limits assumed): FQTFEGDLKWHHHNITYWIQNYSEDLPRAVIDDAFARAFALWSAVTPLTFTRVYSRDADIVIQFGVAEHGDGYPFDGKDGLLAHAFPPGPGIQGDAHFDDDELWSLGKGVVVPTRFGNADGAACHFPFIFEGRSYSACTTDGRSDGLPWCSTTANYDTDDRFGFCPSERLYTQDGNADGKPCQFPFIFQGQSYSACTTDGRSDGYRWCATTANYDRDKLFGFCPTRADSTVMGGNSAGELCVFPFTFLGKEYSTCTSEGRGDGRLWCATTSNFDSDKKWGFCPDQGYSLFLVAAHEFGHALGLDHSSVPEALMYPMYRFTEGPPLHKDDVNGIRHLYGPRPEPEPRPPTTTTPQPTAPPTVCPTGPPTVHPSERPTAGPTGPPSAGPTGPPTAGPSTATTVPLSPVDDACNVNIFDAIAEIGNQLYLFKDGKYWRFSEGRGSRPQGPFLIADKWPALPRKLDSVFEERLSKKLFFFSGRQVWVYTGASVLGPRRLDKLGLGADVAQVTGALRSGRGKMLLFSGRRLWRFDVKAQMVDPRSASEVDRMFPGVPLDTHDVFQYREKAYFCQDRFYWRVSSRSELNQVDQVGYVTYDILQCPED
Source text: MMP-9 was isolated and purified by procedures described in as follows: Yasunori Okada, Yukio Gonoji, Katsumi Naka, Katsuro Tomita, Isao Nakanishi, Kazushi Iwata, Kyoko Yamashita, and Taro Hayakawa: Matrix metalloproteinase 9 (92-kDa gelatinase/type IV collagenase) from HT1080 human fibrosarcoma cells. Purification and activation of the precursor and enzymic properties J. Biol. Chem., 1992, 267 21712-21719, in combination with others: 1)Yasunori Okada, Tatsuhisa Morodomi, Jan J, Enghild, ko Suzuki, Atsushi Yasui, Isao Nakanishi, Guy Salvesen and Hideaki Nagase: Matrix metalloproteinase 2 from human rheumatoid synovial fibroblasts. Purification and activation of the precursor and enzymic properties. Eur. J. Biochem. 1990, 194 721-730; 2)Robin V Ward, Rosalind M Hembry, John J Reynolds and Gillian Murphy: The purification of tissue inhibitor of metalloproteinase-2 from its 72 kDa progelatinase complex. Biochem. J. 1991 278 179-187. In detail, human fibrosarcoma ATCC HT1080 cell line was cultured to confluent in Dulbecco's Modified Medium (DMEM) containing 10% fetal-calf serum at 37° C. for 48 hours. Subsequently, the medium of confluent culture was changed to serum-free DMEM medium. To obtain MMP-9, Phorbol-12-myristate-13-acetate (TPA) must be added to this serum-free DMEM medium at a concentration of 50 ng/ml. The TPA treated medium was centrifuged at 3000 rpm for 15 min and the supernatant was concentrated to 450 ml by a Toyo-Roshi UP-20 apparatus with an ultrafiltration membrane. Then, proMMP-9 in this concentrated solution was purified by using columns of Gelatin-Sepharose and Concanavalin A-Sepharose. The pool containing proMMP-9 was dialyzed, concentrated (Toyo-Roshi UP-20) and applied to columns of Sephacryl S-200 and Green A matrix for the separation from TIMPs. The obtained proMMP-9 fraction was activated by TPCK-Trypsin (Final conc. 3 μg/501 μl React Mix.).
(§1) The enzymatic activity on MMPs was analyzed by the method described in “C. Graham Knight, Frances Willenbrock and Gillian Murphy: A novel coumarin-labelled peptide for sensitive continuous assays of the matrix metalloproteinases: FEBS LETT., 296, (1992), 263-266”. The substrate MOCAc-Pro-Leu-Gly-Leu-A2Pr(DNP)-Ala-Arg-NH2 was purchased from Peptide Institute, Inc., Osaka, Japan. The measurement of the inhibitory activities (IC50) was carried out by the following four methods;
(§2) (A) Reaction with substrate, enzyme (MMPs) and inhibitor
(§3) (B) Reaction with substrate and inhibitor, without enzyme
(§4) (C) Reaction with substrate and enzyme (MMPs), without inhibitor
(§5) (D) Reaction with substrate only
(§6) IC50 values were calculated by using the following formula and each fluorescence values of above four methods (A to D). % inhibition={1−(A−B)/(C−D)}×100 IC50 means the concentration required to inhibit 50% of the enzyme activity.

| IC50 [nM] | SMILES |
| --- | --- |
| 13.8 | CC(C)[C@@H](NS(=O)(=O)c1ccc(-c2ncc(-c3ccccc3)s2)cc1)C(=O)O [Compound B-2] |
| 5.71 | CC(C)[C@@H](NS(=O)(=O)c1ccc(-c2ncc(-c3ccc(Cl)cc3)s2)cc1)C(=O)O [Compound B-4] |

The remaining lines, values behind:

| SMILES | IC50 [nM] |
| --- | --- |
| C[C@@H](NS(=O)(=O)c1ccc(-c2ncc(-c3ccc4ccccc4c3)o2)cc1)C(=O)O [Compound A-46] | 157 |
| CC(C)[C@@H](NS(=O)(=O)c1ccc(-c2ncc(-c3ccc4ccccc4c3)o2)cc1)C(=O)O [Compound A-50] | 88.6 |
| COc1ccc(-c2cnc(-c3ccc(S(=O)(=O)N[C@H](Cc4ccccc4)C(=O)O)cc3)o2)cc1 [Compound A-14] | 174 |

target: T2, MMP-8 (Homo sapiens, UniProt P22894); assay: Assay for inhibitory activities on MMPs (fluorogenic peptide substrate), MMP-8; format: biochemical; details: catalytic domain 99Phe-262Gly; substrate MOCAc-Pro-Leu-Gly-Leu-A2Pr(DNP)-Ala-Arg-NH2
T2 construct: catalytic domain (^99Phe˜^262Gly) was amplified with PCR; His-tag; enterokinase digestion-site; made in house; host or cells: Escherichia coli
T2 sequence (P22894 99-262): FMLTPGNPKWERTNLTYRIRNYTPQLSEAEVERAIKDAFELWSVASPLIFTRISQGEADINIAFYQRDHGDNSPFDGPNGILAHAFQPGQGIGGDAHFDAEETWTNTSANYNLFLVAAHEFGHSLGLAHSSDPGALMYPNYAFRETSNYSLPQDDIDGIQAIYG
Source text: In regard to MMP-8, catalytic domain (^99Phe˜^262Gly) was amplified with PCR using commercial available Human Bone Marrow cDNA. This was cloned in Escherichia. coli expression vector pTrc99AHE inserted with His-tag sequence and enterokinase digestion-site, induced and expressed by IPTG (Isopropyl-β-D-thiogalactopyranoside) and expressed in a insoluble fraction (Thau F. Ho, M. Walid Qoronfleh, Robert C. Wahl, Trica A. Pulvino, Karen J. Vavra, Joe Falvo, Tracey M. Banks, Patricia G. Brake and Richard B. Ciccarelli: Gene expression, purification and characterization of recombinant human neutrophil collagenase. Gene 146, (1994) 297-301, Prepared by the a improved method of this material). Isolation of MMP-8 from an insoluble fraction was carried out by dissolving in modifier (6M urea) by a usual method and purification with metal chelate chromatography. And then removing modifier (6M urea) with dialysis and refolding of the enzyme spontaneously gave activated MMP-8.
as §1, §2, §3, §4, §5, §6

| IC50 [nM] | SMILES |
| --- | --- |
| 15.1 | CC(C)[C@@H](NS(=O)(=O)c1ccc(-c2ncc(-c3ccccc3)s2)cc1)C(=O)O [Compound B-2] |
| 56.9 | CC(C)[C@@H](NS(=O)(=O)c1ccc(-c2ncc(-c3ccc(Cl)cc3)s2)cc1)C(=O)O [Compound B-4] |

Further lines, the molecule ahead of its results:

| SMILES | IC50 [nM] |
| --- | --- |
| C[C@@H](NS(=O)(=O)c1ccc(-c2ncc(-c3ccc4ccccc4c3)o2)cc1)C(=O)O [Compound A-46] | 279 |
| CC(C)[C@@H](NS(=O)(=O)c1ccc(-c2ncc(-c3ccc4ccccc4c3)o2)cc1)C(=O)O [Compound A-50] | 146 |
| COc1ccc(-c2cnc(-c3ccc(S(=O)(=O)N[C@H](Cc4ccccc4)C(=O)O)cc3)o2)cc1 [Compound A-14] | 7.07 |

target: T3, MMP-13 (Homo sapiens, UniProt P45452); assay: Assay for inhibitory activities on MMPs (fluorogenic peptide substrate), MMP-13; format: biochemical; details: catalytic domain 104Tyr-267Gly; substrate MOCAc-Pro-Leu-Gly-Leu-A2Pr(DNP)-Ala-Arg-NH2
T3 construct: catalytic domain (^104Tyr˜^267Gly) was amplified with RT-PCR; His-tag; enterokinase digestion-site; made in house; host or cells: Escherichia coli
Procedure: (§7) In regard to MMP-13, mRNA was prepared from carcinoma cell SW1353 derived from human cartilage stimulate by IL-1, TNF and catalytic domain (^104Tyr˜^267Gly) was amplified with RT-PCR. This was cloned in Escherichia. coli expression vector pTrc99AHE inserted with His-tag sequence and enterokinase digestion-site, induced and expressed by IPTG (Isopropyl-β-D-thiogalactopyranoside) and expressed in a insoluble fraction. Isolation of MMP-13 from an insoluble fraction was carried out by dissolving in modifier (6M urea) by a usual method and purification with metal chelate chromatography (Ni Chelateing Sepharose). And then removing modifier (6M urea) with dialyze and refolding of the enzyme spontaneously gave activated MMP-13.
as §1, §2, §3, §4, §5, §6

| IC50 [nM] | SMILES |
| --- | --- |
| 14.5 | CC(C)[C@@H](NS(=O)(=O)c1ccc(-c2ncc(-c3ccccc3)s2)cc1)C(=O)O [Compound B-2] |
| 5.51 | CC(C)[C@@H](NS(=O)(=O)c1ccc(-c2ncc(-c3ccc(Cl)cc3)s2)cc1)C(=O)O [Compound B-4] |

Continued, molecule first:

| SMILES | IC50 [nM] |
| --- | --- |
| C[C@@H](NS(=O)(=O)c1ccc(-c2ncc(-c3ccc4ccccc4c3)o2)cc1)C(=O)O [Compound A-46] | 19 |
| CC(C)[C@@H](NS(=O)(=O)c1ccc(-c2ncc(-c3ccc4ccccc4c3)o2)cc1)C(=O)O [Compound A-50] | 11.9 |
| COc1ccc(-c2cnc(-c3ccc(S(=O)(=O)N[C@H](Cc4ccccc4)C(=O)O)cc3)o2)cc1 [Compound A-14] | 5.51 |

target: T4, MMP-2 (Homo sapiens, UniProt P08253); assay: Assay for inhibitory activities on MMPs (fluorogenic peptide substrate), MMP-2; format: biochemical; details: purchased MMP-2; substrate MOCAc-Pro-Leu-Gly-Leu-A2Pr(DNP)-Ala-Arg-NH2
T4 construct: purchased Calbiochem-Novabiochem International, Inc
T4 sequence (P08253 110-660): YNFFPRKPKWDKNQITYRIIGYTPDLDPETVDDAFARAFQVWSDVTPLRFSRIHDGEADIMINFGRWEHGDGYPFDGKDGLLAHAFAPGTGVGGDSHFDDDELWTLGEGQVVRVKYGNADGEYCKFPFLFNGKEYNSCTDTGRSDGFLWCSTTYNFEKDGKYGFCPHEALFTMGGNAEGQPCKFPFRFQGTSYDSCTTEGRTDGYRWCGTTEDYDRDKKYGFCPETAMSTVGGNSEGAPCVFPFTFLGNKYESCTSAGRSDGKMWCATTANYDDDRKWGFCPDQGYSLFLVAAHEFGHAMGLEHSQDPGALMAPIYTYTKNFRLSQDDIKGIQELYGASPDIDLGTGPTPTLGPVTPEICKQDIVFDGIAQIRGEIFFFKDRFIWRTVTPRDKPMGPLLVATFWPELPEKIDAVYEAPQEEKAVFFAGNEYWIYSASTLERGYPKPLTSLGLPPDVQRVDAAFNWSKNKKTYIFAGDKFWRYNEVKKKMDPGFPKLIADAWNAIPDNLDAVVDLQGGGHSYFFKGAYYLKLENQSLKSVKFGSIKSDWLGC
Procedure: MMP-2 was purchased from Calbiochem-Novabiochem International, Inc.
as §1, §2, §3, §4, §5, §6

| IC50 [nM] | SMILES |
| --- | --- |
| 1.83 | CC(C)[C@@H](NS(=O)(=O)c1ccc(-c2ncc(-c3ccccc3)s2)cc1)C(=O)O [Compound B-2] |
| 1.27 | CC(C)[C@@H](NS(=O)(=O)c1ccc(-c2ncc(-c3ccc(Cl)cc3)s2)cc1)C(=O)O [Compound B-4] |

Further lines, the molecule ahead of its results:

| SMILES | IC50 [nM] |
| --- | --- |
| C[C@@H](NS(=O)(=O)c1ccc(-c2ncc(-c3ccc4ccccc4c3)o2)cc1)C(=O)O [Compound A-46] | 7.16 |
| CC(C)[C@@H](NS(=O)(=O)c1ccc(-c2ncc(-c3ccc4ccccc4c3)o2)cc1)C(=O)O [Compound A-50] | 4.86 |
| COc1ccc(-c2cnc(-c3ccc(S(=O)(=O)N[C@H](Cc4ccccc4)C(=O)O)cc3)o2)cc1 [Compound A-14] | 2.66 |

target: T5, MMP-12 (Homo sapiens, UniProt P39900); assay: Assay for inhibitory activities on MMPs (fluorogenic peptide substrate), MMP-12; format: biochemical; details: catalytic domain 100Phe-263Gly; substrate MOCAc-Pro-Leu-Gly-Leu-A2Pr(DNP)-Ala-Arg-NH2
T5 construct: catalytic domain(^100Phe˜^263Gly) was amplified with RT-PCR; His-tag; enterokinase digestion-site; made in house; host or cells: Escherichia coli
T5 sequence (P39900 100-263): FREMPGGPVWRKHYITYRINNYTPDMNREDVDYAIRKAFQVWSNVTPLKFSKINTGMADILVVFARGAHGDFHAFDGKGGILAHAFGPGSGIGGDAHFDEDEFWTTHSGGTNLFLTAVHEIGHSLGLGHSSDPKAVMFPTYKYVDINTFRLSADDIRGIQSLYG
Procedure: as §7, with “MMP-12,” for “MMP-13, mRNA was prepared from carcinoma cell SW1353 derived from human cartilage stimulate by IL-1, TNF and”, “domain(^100Phe˜^263Gly)” for “domain (^104Tyr˜^267Gly)”, “RT-PCR from Human Placenta Total RNA.” for “RT-PCR.”, “MMP-12” for “MMP-13”, “dialysis” for “dialyze”, “MMP-12.” for “MMP-13.”
as §1, §2, §3, §4, §5, §6

| IC50 [nM] | SMILES |
| --- | --- |
| 2.92 | CC(C)[C@@H](NS(=O)(=O)c1ccc(-c2ncc(-c3ccccc3)s2)cc1)C(=O)O [Compound B-2] |
| 3.06 | CC(C)[C@@H](NS(=O)(=O)c1ccc(-c2ncc(-c3ccc(Cl)cc3)s2)cc1)C(=O)O [Compound B-4] |

The next lines start with the molecule.

| SMILES | IC50 [nM] |
| --- | --- |
| C[C@@H](NS(=O)(=O)c1ccc(-c2ncc(-c3ccc4ccccc4c3)o2)cc1)C(=O)O [Compound A-46] | 2.25 |
| CC(C)[C@@H](NS(=O)(=O)c1ccc(-c2ncc(-c3ccc4ccccc4c3)o2)cc1)C(=O)O [Compound A-50] | 0.699 |
| COc1ccc(-c2cnc(-c3ccc(S(=O)(=O)N[C@H](Cc4ccccc4)C(=O)O)cc3)o2)cc1 [Compound A-14] | 1.88 |
